Data on six compounds can be found in US9375004B2 (Bayer Intellectual Property GmbH, priority 2010, dated 2016).

Data set [1] concerns Venturia inaequalis. Briefly: Venturia test (apples)/preventive. To be noted: 100 ppm, preventive, evaluated 10 days after inoculation.
Procedure: Venturia Test (Apples)/Preventive
(§1) Solvent: 24.5 parts by weight of acetone • 24.5 parts by weight of N,N-dimethylformamide
(§2) Emulsifier: 1 part by weight of alkylaryl polyglycol ether
After the spray coating has dried on, the plants are inoculated with an aqueous conidia suspension of the causal agent of apple scab (Venturia inaequalis) and then remain for 1 day in an incubation cabinet at approximately 20° C. and a relative atmospheric humidity of 100%.
The plants are then placed in a greenhouse at approximately 21° C. and a relative atmospheric humidity of approximately 90%.
The test is evaluated 10 days after the inoculation.
In data set [2] the test system is Rhizoctonia solani. Briefly: Rhizoctonia test (rice)/protective. The format is in vivo. To be noted: 250 ppm, protective, evaluated 4 days after inoculation. How it is done:
Rhizoctonia Test (Rice)/Protective
Solvent: 28.5 parts by weight of acetone
Emulsifier: 1.5 part by weight of alkylaryl polyglycol ether
1 day after the treatment, the plants are inoculated with hyphae of Rhizoctonia solani.
Evaluation is carried out 4 days after the inoculation.

Data set [3] deals with Pyricularia oryzae. It is filed as in vivo. To be noted: in vivo.
The subject of data set [4] is Puccinia triticina. Briefly: Puccinia triticina-test (wheat)/preventive. To be noted: 500 ppm, preventive, evaluated 8 days after inoculation. It is filed as in vivo.
Data set [5] has as its system Sphaerotheca fuliginea. Briefly: Sphaerotheca test (cucumber)/preventive. The format is in vivo. To be noted: 500 ppm, preventive, evaluated 7 days after inoculation.
Data set [6] concerns Phakopsora pachyrhizi. Briefly: Phakopsora test (soybeans)/protective. It is filed as in vivo. To be noted: 250 ppm, protective, evaluated 11 days after inoculation.
Data set [7] relates to Alternaria solani. In words: Alternaria test (tomato)/preventive. To be noted: 500 ppm, preventive, evaluated 7 days after inoculation. It is filed as in vivo.
The subject of data set [8] is Pyrenophora teres. Briefly: Pyrenophora teres-test (barley)/preventive. It is filed as in vivo. To be noted: 500 ppm, preventive, evaluated 8 days after inoculation.
The test system of data set [9] is Cochliobolus miyabeanus. Briefly: Cochliobolus test (rice)/protective. It is filed as in vivo. To be noted: 250 ppm, protective, evaluated 4 days after inoculation.
The nature of data set [10]: logP by HPLC on reversed-phase column (EEC Directive 79/831 Annex V.A8). To be noted: HPLC on reversed-phase column (C 18), EEC Directive 79/831 Annex V.A8.
Data set [11] concerns Uromyces appendiculatus. To be noted: 100 ppm, beans, preventive, evaluated 10 days after inoculation.
The test system of data set [12] is Botrytis cinerea. Briefly: Botrytis test (beans)/preventive. To be noted: 100 ppm, preventive, lesion size 2 days after inoculation.
Procedure: Botrytis Test (Beans)/Preventive
as §1, §2
After the spray coating has dried on, 2 small pieces of agar covered with growth of Botrytis cinerea are placed on each leaf. The inoculated plants are placed in a darkened chamber at 20° C. and a relative atmospheric humidity of 100%.
2 days after the inoculation, the size of the lesions on the leaves is evaluated.
Data set [13] deals with Septoria tritici. In words: Septoria tritici-test (wheat)/preventive. It is filed as in vivo. To be noted: 500 ppm, preventive, evaluated 21 days after inoculation.
In data set [14] the test system is Fusarium nivale (var. majus). In words: Fusarium nivale (var. majus)-test (wheat)/preventive. To be noted: 500 ppm, preventive, evaluated 5 days after inoculation.
Procedure: Fusarium Nivale (Var. Majus)-Test (Wheat)/Preventive
Solvent: 49 parts by weight of N,N-dimethylacetamide
as §2
After the spray coating has been dried, the plants are slightly injured by using a sandblast and afterwards they are sprayed with a conidia suspension of Fusarium nivale (var. majus).
The plants are placed in the greenhouse under a translucent incubation cabinet at a temperature of approximately 10° C. and a relative atmospheric humidity of approximately 100%.
The test is evaluated 5 days after the inoculation.

“And” between values parts separate entries of the source, which are not always exact repeats. Equal values may be shown once.

Broadly, the logP is the decadic logarithm of the partition coefficient of the neutral form, usually between octanol and water. A higher logP goes with a more lipophilic compound. On to `Cn1nc(C(F)F)c(C(=O)Nc2ccc(F)cc2-c2ccc(Cl)c(Cl)c2)c1F` [Example 116], for which the Efficacy in data set [1] is 100%; in data set [2], 97%; in [3] it was 97% and 90%; in data set [4] it was 100%; in data set [5], 98%; in [6] it was 85%. The Efficacy in [7] was determined as 100%; in data set [8], 100%; in [9] it was 90%; in data set [11], 100%; in [12], 100%; in [13], 100%. Moreover, the protection entry in data set [3] is “at least 90%”. In data set [10], this compound returned a logP of 3.89.

In the case of `Cn1nc(C(F)F)c(C(=O)Nc2ccccc2C2CC2C2CC2)c1F` (centres unmarked) [Example 46], the Efficacy in data set [1] stood at 100%; in [2], 97%; in data set [3], 96%; in data set [4], 100%; in [5] it was 94%; in [6], 85%. Also, the Efficacy stood at 100% in data set [7]; 100% in [8]; 100% in [11]; 99% in [12]; 89% in data set [13]. Also, in data set [10], the logP was determined as 3.67.

For `Cn1nc(C(F)F)c(C(=O)Nc2ccccc2-c2ccc(C(F)(F)F)c(F)c2)c1Cl` [Example 148], the Efficacy worked out at 100% in data set [1]; 100% in [2]; 80% in data set [3]; 100% in [4]; 98% in [6]; 100% in data set [8]. Besides, the Efficacy in [9] is 95%; in data set [11], 100%; in [14], 86%; in data set [12], 100%; in data set [13], 100%. This compound also gave a logP in data set [10] of 3.77.

Regarding `Cn1nc(C(F)F)c(C(=O)Nc2ccccc2C2CC2C2CC2)c1Cl` (single isomer, unassigned) [Example 47], the Efficacy in data set [1] turned out to be 100%; in [2], 100%; in data set [3] it was 90%; in data set [4], 100%; in data set [6], 98%; in data set [8], 100%. In addition, the Efficacy is 100% in data set [11] and 86% in data set [14] (listed as 47 from this invention). In data set [10], the logP came to 3.76.

With `CC(CC(C)(C)C)c1ccccc1NC(=O)c1c(C(F)F)nn(C)c1F` (centres unmarked) [Example 21], the Efficacy in data set [1] was determined as 100%; in data set [2], 100%; in data set [3] it was 85%; in data set [4], 100%; in [5], 95%; in data set [6], 98%. The Efficacy in data set [7] worked out at 95%; in data set [8] it was 95%; in data set [9], 85%; in [11], 100%; in [12], 100%; in [13], 100%. Further, the log partition coefficient (logP) in data set [10] is listed as 4.04.

Consider `Cn1nc(C(F)F)c(C(=O)Nc2ccccc2C2CC2C2CC2)c1Cl` (single isomer, unassigned) [Example 48], for which the Efficacy in [1] was determined as 100%; in data set [2] it was 98%; in [4] it was 100%; in data set [6], 99%; in [8], 86%; in data set [11], 100%. For the same compound, in data set [14] (listed as 48 from this invention), the Efficacy worked out at 86%. The compound further registered a log partition coefficient (logP) in data set [10] of 3.85.
